The target of assay [1] is C-Raf kinase (SEQ. ID NO: 3) (Homo sapiens (Human), UniProt P04049, Y340D/Y341D). The assay can be described thus: Biochemical Assay for C-Raf (1). Conditions: Table J, assay version (1); read-out: CRAF (1) IC50. The method, boiled down:
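Coupled pyruvate kinase/LDH assay tracking NADH oxidation at 340 nm, with 0.43 nM C-Raf, 30.1 nM MEK and 1 mM ATP in pH 7.5 Tris buffer (15 mM MgCl2, 1% DMSO final). Read continuously for 6 h at 30 °C, rate taken from the 4–5 h window. IC50 from four-parameter fit of percent inhibition.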

Assay [2] has as its target B-Raf (V600E) (SEQ. ID NO: 4) kinase (Homo sapiens (Human), UniProt P15056, V600E). In words: Biochemical Assay for B-Raf (V600E) (1). Conditions: Table J, BRAF V600E, assay version (1); read-out: BRAF VE (1) IC50. The procedure, abridged:
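Coupled pyruvate kinase/lactate dehydrogenase assay: 0.03 nM B-Raf V600E, 30.1 nM MEK, 1 mM ATP, pH 7.5 Tris/MgCl2 buffer, 1% DMSO. NADH oxidation followed at 340 nm for 6 h at 30 °C; rate from 3–4 h converted to percent inhibition, IC50 by four-parameter fit.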

Assay [3] relates to H2405 cells. In words: H2405 Cell Proliferation Assay (1). In kind it is cell-based. Conditions: Homo sapiens, NCI-H2405. The protocol: H2405 Cell Proliferation Assay (1)
(§1) H2405 cells (catalog #CRL-5994) are obtained from the American Type Culture Collect (ATTC, Manassas, VA). Briefly, cells were grown in RPMI 1640 supplemented with 5% characterized fetal bovine serum (Invitrogen, Carlsbad, CA) and 1% Penicillin/Streptomycin/L-Glutamine at 37° C., 5% CO2, and 95% humidity. Cells are expanded until reaching 70-95% confluency at which point they are sub-cultured or harvested for assay use. A serial dilution of test compound is dispensed into a 96-well black clear bottom plate in triplicate. Three thousand cells are added per well in 200 μL complete growth medium in the 96-well plate. Plates are incubated for 67-72 h at 37° C., 5% CO2, and 95% humidity. At the end of the incubation, 40 μL of a 440 μM solution of resazurin (Sigma, St. Louis, MO) in PBS is added to each well of the plate and plates are incubated for an additional 5-6 h at 37° C., 5% CO2, and 95% humidity. Plates are read on a Synergy2 or equivalent reader (Biotek, Winooski VT) using an excitation of 540 nm and an emission of 600 nm. Data is analyzed using Prism software (GraphPad, San Diego, CA) to calculate IC50 values.

Assay [4] concerns Miapaca-2 cells. In words: MiaPaca-2 Cell Proliferation Assay (1). In kind it is cell-based. Conditions: Homo sapiens, MIA PaCa-2, single agent, read-out: MiaPaca2 (1) IC50. The protocol: MiaPaca-2 Cell Proliferation Assay (1)
as §1, with “Miapaca-2 cells” for “H2405 cells”, “(catalog #CRL-1420)” for “(catalog #CRL-5994)”, “in DMEM” for “in RPMI 1640”, “with 10%” for “with 5%”, “Carlsbad, CA), 2.5% New Zealand sourced horse serum” for “Carlsbad, CA)”

Chain of B-Raf (V600E) (SEQ. ID NO: 4) kinase (P15056 416-766 V600E): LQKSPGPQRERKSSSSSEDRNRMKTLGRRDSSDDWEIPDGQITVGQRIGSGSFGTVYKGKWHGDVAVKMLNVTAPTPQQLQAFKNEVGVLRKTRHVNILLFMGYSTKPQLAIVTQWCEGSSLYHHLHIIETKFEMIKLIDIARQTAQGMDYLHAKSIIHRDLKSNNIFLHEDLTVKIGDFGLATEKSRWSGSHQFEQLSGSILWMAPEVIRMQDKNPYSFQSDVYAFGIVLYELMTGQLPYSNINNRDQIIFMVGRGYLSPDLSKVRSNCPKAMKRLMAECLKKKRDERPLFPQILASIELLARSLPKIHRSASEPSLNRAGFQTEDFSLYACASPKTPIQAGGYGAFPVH
Chain of C-Raf kinase (SEQ. ID NO: 3) (P04049 307-648 Y340D/Y341D): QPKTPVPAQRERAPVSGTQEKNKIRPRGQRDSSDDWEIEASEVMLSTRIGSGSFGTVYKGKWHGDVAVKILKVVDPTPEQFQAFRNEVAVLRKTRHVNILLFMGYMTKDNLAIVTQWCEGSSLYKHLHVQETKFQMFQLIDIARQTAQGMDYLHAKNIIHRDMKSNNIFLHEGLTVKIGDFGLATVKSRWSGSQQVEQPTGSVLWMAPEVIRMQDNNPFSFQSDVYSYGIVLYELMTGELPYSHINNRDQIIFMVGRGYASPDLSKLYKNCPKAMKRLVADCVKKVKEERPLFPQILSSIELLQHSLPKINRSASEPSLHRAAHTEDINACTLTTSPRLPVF

On to `COCC(=O)Nc1cc(-c2cccc(-c3cc(NC(=O)c4ccnc(C(F)(F)F)c4)cnc3C)n2)ccn1` [Example 130], for which the IC50 in assay [1] is not above 100 nM; in assay [2] it was not above 100 nM; in assay [3], 100 to 500 nM.

With `Cc1ccc(NC(=O)c2ccnc(C(F)(F)F)c2)cc1-c1ccnc(-c2ccnc(N)c2)n1` [Example 122], the IC50 in assay [1] was not above 100 nM; in assay [2] it was not above 100 nM; in assay [3], 1000 to 10000 nM; in assay [4], 1000 to 10000 nM.

As for `CC(=O)Nc1cc(-c2cncc(-c3cc(NC(=O)c4cccc(C(C)(C)C#N)c4)ccc3C)n2)ccn1` [Example 125], the IC50 in assay [1] is not above 100 nM; in assay [2] it was not above 100 nM; in assay [3], not above 100 nM; in assay [4] it was 500 to 1000 nM.

Consider `Cc1ccc(NC(=O)c2ccnc(C(C)(C)C#N)c2)cc1-c1cccc(-c2ccnc3[nH]ccc23)c1` [Example 133], for which the results for the IC50 in assay [1], in assay [2] and in assay [3] were 100 to 500 nM, not above 100 nM and 500 to 1000 nM, respectively.

In the case of `CNC(=O)c1cc(-c2cc(-c3cc(NC(=O)c4ccnc(C(C)(C)C#N)c4)cnc3C)ccn2)ccn1` [Example 158], the 50% inhibitory concentration (IC50) in assay [1] was 100 to 500 nM; in assay [2] it was not above 100 nM; in assay [4], 1000 to 10000 nM.

Consider `CC(=O)Nc1cc(-c2cncc(-c3cc(NC(=O)c4ccnc(C(C)(C)C#N)c4)ccc3C)n2)ccn1` [Example 140], for which the figures for the IC50 in assay [1], in assay [2] and in assay [4] were not above 100 nM, not above 100 nM and 500 to 1000 nM, respectively.

In the case of `CNC(=O)c1cc(-c2cccc(-c3cc(NC(=O)c4ccnc(C(F)(F)F)c4)ccc3C)c2)ncn1` [Example 106], the values for the IC50 in assay [1], in assay [2] and in assay [4] were not above 100 nM, not above 100 nM and 1000 to 10000 nM, respectively.

As to `Cc1cc(F)c(NC(=O)c2ccnc(C(C)(C)C#N)c2)cc1-c1ccnc(-c2ccnc(NC(=O)C3CC3)c2)n1` [Example 179], the IC50 was not above 100 nM in assay [1], not above 100 nM in assay [2] and 1000 to 10000 nM in assay [4].

Consider `Cc1ccc(NC(=O)c2ccnc(C(C)(C)C#N)c2)cc1-c1cncc(-c2ccnc(N)c2)n1` [Example 141], for which the IC50 in assay [1] was not above 100 nM; in assay [2], not above 100 nM; in assay [4], 1000 to 10000 nM.

For the compound `Cc1ccc(NC(=O)c2ccnc(C(C)(C)C#N)c2)cc1-c1cncc(-c2ccnc(NC(=O)CC#N)c2)n1` [Example 154], the IC50 is not above 100 nM in assay [1], not above 100 nM in assay [2] and 1000 to 10000 nM in assay [4].

Consider `CC(=O)Nc1cc(-c2nccc(-c3cc(NC(=O)c4cnnc(C5CC5)c4)ccc3C)n2)ccn1` [Example 168], for which the IC50 in assay [1] was not above 100 nM; in assay [2] it was not above 100 nM; in assay [4], 1000 to 10000 nM.

Turning to `COCCNc1cc(-c2cccc(-c3cc(NC(=O)c4ccnc(C(F)(F)F)c4)ccc3C)c2)ncn1` [Example 156], the values for the IC50 in assay [1], in assay [2] and in assay [4] were not above 100 nM, not above 100 nM and 1000 to 10000 nM, respectively.

As to `CNC(=O)c1cc(-c2cc(-c3cc(NC(=O)c4cccc(C(C)(C)C#N)c4)ccc3C)ccn2)ccn1` [Example 127], the IC50 in assay [1] was not above 100 nM; in assay [2] it was not above 100 nM; in assay [4], 1000 to 10000 nM.

In the case of `CC(=O)Nc1cc(-c2nccc(-c3cc(NC(=O)c4cc(C(F)(F)F)ccn4)ccc3C)n2)ccn1` [Example 153], the results for the IC50 in assay [1], in assay [2] and in assay [4] were not above 100 nM, not above 100 nM and 1000 to 10000 nM, respectively.

In the case of `CC(=O)Nc1cc(-c2cc(-c3cc(NC(=O)c4ccnc(C(F)(F)F)c4)ccc3C)cn(CCO)c2=O)ccn1` [Example 102], the IC50 is 100 to 500 nM in assay [1], not above 100 nM in assay [2] and 1000 to 10000 nM in assay [4].

Turning to `COCCNc1cc(-c2cncc(-c3cc(NC(=O)c4ccnc(C(C)(C)C#N)c4)ccc3C)n2)ccn1` [Example 143], the IC50 in assay [1] is not above 100 nM; in assay [2], not above 100 nM; in assay [4] it was 1000 to 10000 nM.

For `COc1cc(C(=O)Nc2ccc(C)c(-c3cncc(-c4ccnc(NC(C)=O)c4)n3)c2)ccc1F` [Example 120], the IC50 in assay [1] was not above 100 nM; in assay [2], not above 100 nM; in assay [4] it was 1000 to 10000 nM.

`Cc1ncc(NC(=O)c2ccnc(C(F)(F)F)c2)cc1-c1cccc(-c2ccnc(N)c2)c1` [Example 94]: the results for the IC50 in assay [1], in assay [2] and in assay [4] were not above 100 nM, not above 100 nM and 1000 to 10000 nM, respectively.

`CNC(=O)c1cc(-c2cncc(-c3cc(NC(=O)c4cc(C(F)(F)F)ccn4)ccc3C)n2)ccn1` [Example 135]: the values for the IC50 in assay [1], in assay [2] and in assay [4] were not above 100 nM, not above 100 nM and 1000 to 10000 nM, respectively.

With `CNc1cc(-c2cccc(-c3cc(NC(=O)c4ccnc(C(C)(C)C#N)c4)ccc3C)c2)ncn1` [Example 160], the IC50 is not above 100 nM in assay [1], not above 100 nM in assay [2] and 1000 to 10000 nM in assay [4].

For `Cc1ccc(NC(=O)c2ccnc(C(C)(C)C#N)c2)cc1-c1nccc(-c2ccnc(NC(=O)C3CC3)c2)n1` [Example 169], the IC50 was not above 100 nM in assay [1], not above 100 nM in assay [2] and 1000 to 10000 nM in assay [4].

With `CC(=O)Nc1cc(-c2cccc(-c3cc(NC(=O)c4ccnc(C(F)(F)F)c4)c(F)cc3C)c2)ncn1` [Example 114], the IC50 in assay [1] is not above 100 nM; in assay [2], not above 100 nM; in assay [4], 1000 to 10000 nM.

As for `CC(=O)Nc1cc(-c2cncc(-c3cc(NC(=O)c4ccnc(C5CC5)c4)ccc3C)n2)ccn1` [Example 145], the IC50 is not above 100 nM in assay [1], not above 100 nM in assay [2] and 1000 to 10000 nM in assay [4].

As to `CNC(=O)c1cc(-c2cncc(-c3cc(NC(=O)c4cccc(C(C)(C)C#N)c4)ccc3C)n2)ccn1` [Example 136], the IC50 in assay [1] was not above 100 nM; in assay [2], not above 100 nM; in assay [4], 1000 to 10000 nM.

`Cc1ccc(NC(=O)c2cccc(C(C)(C)C#N)c2)cc1-c1cccc(-c2cc(NC(=O)C3CC3)ncn2)c1` [Example 174]: the IC50 in assay [1] was not above 100 nM; in assay [2] it was not above 100 nM; in assay [4], 1000 to 10000 nM.

Take `CCOc1cc(-c2cc(NC(=O)c3ccnc(C(F)(F)F)c3)ccc2C)cc(-c2ccnc(NC(C)=O)c2)n1` [Example 8]: the IC50 in assay [1] was not above 100 nM; in assay [2], not above 100 nM; in assay [4], 1000 to 10000 nM.

With `CNC(=O)c1cc(-c2cncc(-c3cc(NC(=O)c4ccnc(C5(C#N)CC5)c4)ccc3C)n2)ccn1` [Example 138], the IC50 in assay [1] is not above 100 nM; in assay [2], not above 100 nM; in assay [4], 1000 to 10000 nM.

Turning to `CNC(=O)c1cc(-c2cc(-c3cc(NC(=O)c4ccnc(C(C)(C)C#N)c4)ccc3C)cc(C3CC3)n2)ccn1` [Example 163], the IC50 in assay [1] is 100 to 500 nM; in assay [2] it was not above 100 nM; in assay [3] it was not above 100 nM.

Take `Cc1ccc(NC(=O)c2ccnc(C3CC3)c2)cc1-c1cncc(-c2ccnc(NC(=O)C3CC3)c2)n1` [Example 184]: the IC50 in assay [1] was not above 100 nM; in assay [2], not above 100 nM; in assay [4], 1000 to 10000 nM.

With `CC(=O)Nc1nccc(-c2cccc(-c3cc(NC(=O)c4ccnc(C(F)(F)F)c4)ccc3C)c2)c1C#N` [Example 132], the IC50 is not above 100 nM in assay [1], not above 100 nM in assay [2] and 1000 to 10000 nM in assay [4].

As for `CC(=O)Nc1cc(-c2nccc(-c3cc(NC(=O)c4ccnc(C(C)(C)C#N)c4)ccc3C)n2)ccn1` [Example 118], the IC50 in assay [1] is not above 100 nM; in assay [2] it was not above 100 nM; in assay [4], 1000 to 10000 nM.

For the compound `Cc1ccc(NC(=O)c2ccnc(C(F)F)c2)cc1-c1cncc(-c2ccnc(NC(=O)C3CC3)c2)n1` [Example 117], the figures for the IC50 in assay [1], in assay [2] and in assay [4] were not above 100 nM, not above 100 nM and 1000 to 10000 nM, respectively.

What is called IC50 is the concentration needed to halve the response being measured.
